According to patent US20250388574A1, “HETEROCYCLIC COMPOUNDS AS TRIGGERING RECEPTOR EXPRESSED ON MYELOID CELLS 2 AGONISTS AND METHODS OF USE” (AMGEN INC., priority 2020, published 2025):

Molecular target: hTREM2 (Homo sapiens, UniProt Q9NZC2)
Assay: Phospho-Syk AlphaScreen/AlphaLISA assay in TREM2 and DAP12 overexpressing HEK293 cells (Example A1)
Assay type: cell-based
Set-up: expressed in transfected cells
Settings: HEK293 cells; for EC50: read-out: hTREM2 EC50
In short: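 Single-cell-cloned HEK293 stably overexpressing TREM2 and DAP12, plated 20,000 cells/well for 20 h, then exposed to compounds (1% DMSO) 45 min at room temperature. Lysates probed for phospho-Syk by AlphaLISA sandwich (anti-pSyk, biotinylated anti-Syk); signal normalized to percent of control (100 nM anti-TREM2 antibody vs isotype) and fitted by 4-parameter logistic.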

Chain of hTREM2 (Q9NZC2 19-230): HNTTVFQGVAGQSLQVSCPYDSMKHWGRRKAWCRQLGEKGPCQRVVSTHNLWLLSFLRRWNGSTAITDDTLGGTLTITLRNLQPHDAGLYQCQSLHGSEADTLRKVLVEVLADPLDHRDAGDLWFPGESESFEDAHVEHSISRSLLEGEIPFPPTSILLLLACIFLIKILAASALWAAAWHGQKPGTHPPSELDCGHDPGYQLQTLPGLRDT
Chain of hTREM2 (O43914 22-113 partner): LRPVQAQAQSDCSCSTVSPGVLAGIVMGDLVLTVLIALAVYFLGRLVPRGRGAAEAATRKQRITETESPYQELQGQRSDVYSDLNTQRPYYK

`Cc1nc2cc(N3CCC[C@@H](N4CCC4)C3)nc(-c3ccc(Cl)cc3F)c2c(=O)n1C` [Example 246, (R)-7-(3-(azetidin-1-yl)piperidin-1-yl)-5-(4-chloro-2-fluorophenyl)-2,3-dimethylpyrido[4,3-d]pyrimidin-4(3H)-one] was tested. Which Emax did it give?
The Emax was “+++ (Emax>200 and ≤300)”.

And the EC50?
The EC50 was 3000 to 100000 nM.

With `Cc1nc2cc(N3CCO[C@@H](c4cnn(C(F)(F)F)c4)C3)nc(-c3ccc(Cl)cc3F)c2c(=O)n1C` [Example 141, 5-(4-chloro-2-fluorophenyl)-2,3-dimethyl-7-((2S)-2-(1-(trifluoromethyl)-1H-pyrazol-4-yl)-4-morpholinyl)pyrido[4,3-d]pyrimidin-4(3H)-one] as the molecule, how does the Emax read?
Its Emax is “++++ (Emax>300)”.

What about the EC50 of the same molecule?
The EC50 was 50 to 500 nM.

Which results are given for `Cc1nc2cc(N3C[C@@H](C)O[C@H](c4cnn(C)c4)C3)nc(-c3ccc(Cl)cc3F)c2c(=O)n1C` (single isomer, unassigned) [Example 27]?
Emax: ++++ (Emax>300); EC50: 50 to 500 nM

With `Cc1nc2cc(N3CCO[C@@H](C4CC4)C3)nc(-c3ccc(Cl)cc3F)c2c(=O)n1C` [Example 188, (S)-5-(4-chloro-2-fluorophenyl)-7-(2-cyclopropylmorpholino)-2,3-dimethylpyrido[4,3-d]pyrimidin-4(3H)-one] as the molecule, how does the Emax read?
The Emax was “++++ (Emax>300)”.

And the EC50?
Its EC50 is 500 to 3000 nM.

Which results are given for `Cc1nc2cc(N3CCC[C@@H](c4cn[nH]c4)C3)nc(-c3ccc(Cl)cc3F)c2c(=O)n1C` (single isomer, unassigned) [Example 107]?
Emax: ++++ (Emax>300); EC50: < 50 nM

Which Emax does the source give for `Cc1nc2cc(N3CCC(F)(F)[C@H](c4cnn(C)c4)C3)nc(-c3ccc(Cl)cc3F)c2c(=O)n1C` (single isomer, unassigned) [Example 117] here?
Its Emax is “+++ (Emax>200 and ≤300)”.

What about the EC50 of the same molecule?
The EC50 was less than 50 nM.

How did the Emax turn out when `Cc1nc2cc(N3CCO[C@@H](c4cnn(C)c4)C3)nc(-c3ccc(Cl)cn3)c2c(=O)n1C` [Example 212, (S)-5-(5-chloropyridin-2-yl)-2,3-dimethyl-7-(2-(1-methyl-1H-pyrazol-4-yl)morpholino)pyrido[4,3-d]pyrimidin-4(3H)-one] was run?
Its Emax is “++++ (Emax>300)”.

And the EC50?
Its EC50 is 3000 to 100000 nM.

What does the source list for `Cc1nc2cc(N3CCO[C@@H](c4ccnc(Cl)c4)C3)nc(-c3ccc(Cl)cc3F)c2c(=O)n1C` (single isomer, unassigned) [Example 89]?
Emax: ++++ (Emax>300); EC50: 50 to 500 nM

How did the Emax turn out when `Cc1nc2cc(N3CC[C@H](c4ccncc4)C3)nc(-c3ccc(Cl)cc3F)c2c(=O)n1C` [Example 254, (R)-5-(4-chloro-2-fluorophenyl)-2,3-dimethyl-7-(3-(pyridin-4-yl)pyrrolidin-1-yl)pyrido[4,3-d]pyrimidin-4(3H)-one] was run?
The Emax was “++++ (Emax>300)”.

And the EC50?
Its EC50 is 3000 to 100000 nM.

`COc1cccc([C@@H]2CN(c3cc4nc(C)n(C)c(=O)c4c(-c4ccc(Cl)cc4F)n3)CCO2)c1` (single isomer, unassigned) [Example 81] was tested. Which Emax did it give?
The Emax was “+++ (Emax>200 and ≤300)”.

And the EC50?
Its EC50 is 3000 to 100000 nM.

Which results are given for `Cc1nc2cc(N3CCC[C@H](N4CCCC4=O)C3)nc(-c3ccc(Cl)cc3F)c2c(=O)n1C` [Example 232, (S)-5-(4-chloro-2-fluorophenyl)-2,3-dimethyl-7-(3-(2-oxopyrrolidin-1-yl)piperidin-1-yl)pyrido[4,3-d]pyrimidin-4(3H)-one]?
Emax: ++++ (Emax>300); EC50: 500 to 3000 nM

How did the Emax turn out when `Cc1nc2cc(N3CCO[C@H](c4cccc(C(F)(F)F)c4)C3)nc(-c3ccc(Cl)cc3F)c2c(=O)n1C` (single isomer, unassigned) [Example 92] was run?
Its Emax is “++++ (Emax>300)”.

What about the EC50 of the same molecule?
The EC50 was 50 to 500 nM.

`Cc1ccc(C2CN(c3cc4nc(C)n(C)c(=O)c4c(-c4ccc(Cl)cc4F)n3)CCO2)cn1` (centres unmarked) [Example 60, 5-(4-chloro-2-fluorophenyl)-2,3-dimethyl-7-(2-(6-methyl-3-pyridinyl)-4-morpholinyl)pyrido[4,3-d]pyrimidin-4(3H)-one] was tested. Which Emax did it give?
Its Emax is “++++ (Emax>300)”.

And the EC50?
Its EC50 is 50 to 500 nM.

`CCn1c(C)nc2cc(N3CCO[C@@H](c4cnn(C5CC5)c4)C3)nc(-c3ccc(F)cc3F)c2c1=O` [Example 151, 7-((2S)-2-(1-cyclopropyl-1H-pyrazol-4-yl)-4-morpholinyl)-5-(2,4-difluorophenyl)-3-ethyl-2-methylpyrido[4,3-d]pyrimidin-4(3H)-one] was tested. Which Emax did it give?
Its Emax is “+++ (Emax>200 and ≤300)”.

What about the EC50 of the same molecule?
Its EC50 is less than 50 nM.

How did the Emax turn out when `Cc1nc2cc(N3CC[C@H](c4cccnc4)C3)nc(-c3ccc(Cl)cc3F)c2c(=O)n1C` [Example 261, (R)-5-(4-chloro-2-fluorophenyl)-2,3-dimethyl-7-(3-(pyridin-3-yl)pyrrolidin-1-yl)pyrido[4,3-d]pyrimidin-4(3H)-one] was run?
The Emax was “++++ (Emax>300)”.

And the EC50?
The EC50 was 3000 to 100000 nM.

For `Cc1nc2cc(N3CCOC(C4CCC4)C3)nc(-c3ccc(Cl)cc3F)c2c(=O)n1C` (centres unmarked) [Example 33, 5-(4-chloro-2-fluorophenyl)-7-(2-cyclobutyl-4-morpholinyl)-2,3-dimethylpyrido[4,3-d]pyrimidin-4(3H)-one], which Emax is on record?
Its Emax is “++++ (Emax>300)”.

What about the EC50 of the same molecule?
Its EC50 is 500 to 3000 nM.

Which Emax does the source give for `Cc1nc2cc(N3CCO[C@@](C)(C4CC4)C3)nc(-c3ccc(Cl)cc3F)c2c(=O)n1C` [Example 219, (S)-5-(4-chloro-2-fluorophenyl)-7-(2-cyclopropyl-2-methylmorpholino)-2,3-dimethylpyrido[4,3-d]pyrimidin-4(3H)-one] here?
The Emax was “++ (Emax>100 and ≤200)”.

What about the EC50 of the same molecule?
The EC50 was 500 to 3000 nM.

`Cc1nc2cc(N3C[C@@H](C)O[C@@H](c4ccsc4)C3)nc(-c3ccc(Cl)cc3F)c2c(=O)n1C` (single isomer, unassigned) [Example 73] was tested. Which Emax did it give?
The Emax was “+++ (Emax>200 and ≤300)”.

What about the EC50 of the same molecule?
The EC50 was 3000 to 100000 nM.

Which Emax does the source give for `CCn1c(C)nc2cc(N3CCO[C@H](c4noc(C)n4)C3)nc(-c3ccc(Cl)cc3F)c2c1=O` [Example 147, 5-(4-chloro-2-fluorophenyl)-3-ethyl-2-methyl-7-((2S)-2-(5-methyl-1,2,4-oxadiazol-3-yl)-4-morpholinyl)pyrido[4,3-d]pyrimidin-4(3H)-one] here?
Its Emax is “++++ (Emax>300)”.

And the EC50?
Its EC50 is 50 to 500 nM.

Which results are given for `Cc1nc2cc(N3CCC[C@H](N4CCCC4)C3)nc(-c3ccc(Cl)cc3F)c2c(=O)n1C` [Example 242, (S)-5-(4-chloro-2-fluorophenyl)-2,3-dimethyl-7-(3-(pyrrolidin-1-yl)piperidin-1-yl)pyrido[4,3-d]pyrimidin-4(3H)-one]?
Emax: +++ (Emax>200 and ≤300); EC50: 3000 to 100000 nM

How did the Emax turn out when `Cc1nc2cc(N3CCc4cnn(C)c4C3)nc(-c3ccc(Cl)cc3F)c2c(=O)n1C` [Example 104, 5-(4-chloro-2-fluorophenyl)-2,3-dimethyl-7-(1-methyl-1,4,5,7-tetrahydro-6H-pyrazolo[3,4-c]pyridin-6-yl)pyrido[4,3-d]pyrimidin-4(3H)-one] was run?
The Emax was “++++ (Emax>300)”.

What about the EC50 of the same molecule?
Its EC50 is 50 to 500 nM.

`CCn1c(C)nc2cc(N3CCO[C@@H](c4cnn(C)c4)C3)nc(-c3ccc(Cl)cc3F)c2c1=O` [Example 146, 5-(4-chloro-2-fluorophenyl)-3-ethyl-2-methyl-7-((2S)-2-(1-methyl-1H-pyrazol-4-yl)-4-morpholinyl)pyrido[4,3-d]pyrimidin-4(3H)-one] was tested. Which Emax did it give?
The Emax was “++++ (Emax>300)”.

And the EC50?
Its EC50 is less than 50 nM.

Which results are given for `Cc1nc2cc(N3CCOC(c4cnn(C)c4)C3)cc(-c3ncc(Cl)cc3F)c2c(=O)n1C` (centres unmarked) [Example 15, 5-(5-chloro-3-fluoro-2-pyridinyl)-2,3-dimethyl-7-(2-(1-methyl-1H-pyrazol-4-yl)-4-morpholinyl)-4(3H)-quinazolinone]?
Emax: ++++ (Emax>300); EC50: 500 to 3000 nM

What does the source list for `Cc1nc2cc(N3CCO[C@H](c4cnn(C)c4)C3)cc(-c3ccc(Cl)cc3F)c2c(=O)n1C` [Example 4, 5-(4-chloro-2-fluorophenyl)-2,3-dimethyl-7-((2R)-2-(1-methyl-1H-pyrazol-4-yl)-4-morpholinyl)-4(3H)-quinazolinone]?
Emax: +++ (Emax>200 and ≤300); EC50: 500 to 3000 nM

Which Emax does the source give for `Cc1nc2cc(N3CC[C@H](C(F)(F)F)C3)nc(-c3ccc(Cl)cc3F)c2c(=O)n1C` [Example 257, (S)-5-(4-chloro-2-fluorophenyl)-2,3-dimethyl-7-(3-(trifluoromethyl)pyrrolidin-1-yl)pyrido[4,3-d]pyrimidin-4(3H)-one] here?
Its Emax is “++ (Emax>100 and ≤200)”.

What about the EC50 of the same molecule?
The EC50 was 500 to 3000 nM.

What does the source list for `COc1ccc([C@@H]2CN(c3cc4nc(C)n(C)c(=O)c4c(-c4ccc(Cl)cc4F)n3)CCO2)cc1` [Example 237, (R)-5-(4-chloro-2-fluorophenyl)-7-(2-(4-methoxyphenyl)morpholino)-2,3-dimethylpyrido[4,3-d]pyrimidin-4(3H)-one]?
Emax: ++ (Emax>100 and ≤200); EC50: 50 to 500 nM

With `Cc1nc2cc(N3CCOC(c4ccnn4C)C3)nc(-c3ccc(Cl)cc3F)c2c(=O)n1C` (centres unmarked) [Example 52, 5-(4-chloro-2-fluorophenyl)-2,3-dimethyl-7-(2-(1-methyl-1H-pyrazol-5-yl)-4-morpholinyl)pyrido[4,3-d]pyrimidin-4(3H)-one] as the molecule, how does the Emax read?
Its Emax is “++++ (Emax>300)”.

And the EC50?
The EC50 was 500 to 3000 nM.

`Cc1nc2cc(N3CCC[C@H](c4cnn(C)c4)C3)nc(-c3ccc(Cl)cc3F)c2c(=O)n1C` (single isomer, unassigned) [Example 100] was tested. Which Emax did it give?
Its Emax is “+++ (Emax>200 and ≤300)”.

And the EC50?
The EC50 was 50 to 500 nM.

How did the Emax turn out when `Cc1nc2cc(N3CCc4ncn(C)c4C3)nc(-c3ccc(Cl)cc3F)c2c(=O)n1C` [Example 222, 5-(4-chloro-2-fluorophenyl)-2,3-dimethyl-7-(3-methyl-3,4,6,7-tetrahydro-5H-imidazo[4,5-c]pyridin-5-yl)pyrido[4,3-d]pyrimidin-4(3H)-one] was run?
The Emax was “++ (Emax>100 and ≤200)”.

What about the EC50 of the same molecule?
The EC50 was 500 to 3000 nM.

For `Cc1ccc([C@H]2CN(c3cc4nc(C)n(C)c(=O)c4c(-c4ccc(Cl)cc4F)n3)CCO2)cn1` (single isomer, unassigned) [Example 139], which Emax is on record?
The Emax was “++++ (Emax>300)”.

What about the EC50 of the same molecule?
The EC50 was 50 to 500 nM.

Which Emax does the source give for `Cc1nc2cc(N3CCC(c4nccn4C)C3)nc(-c3ccc(Cl)cc3F)c2c(=O)n1C` (centres unmarked) [Example 122, 5-(4-chloro-2-fluorophenyl)-2,3-dimethyl-7-(3-(1-methyl-1H-imidazol-2-yl)-1-pyrrolidinyl)pyrido[4,3-d]pyrimidin-4(3H)-one] here?
Its Emax is “+ (Emax>45 and ≤100)”.

And the EC50?
The EC50 was 3000 to 100000 nM.
